# Experimental data from patent US20090005326A1, “SINGLE DOSE ROXITHROMYCIN” (priority 2007, published 2009).
# Like-named read-outs stand apart in the source and are kept apart here.
# Legend:
# [1] = literature; cited from earlier work
# [2] = tested on: Pasteurella multocida; assay: MIC, single disc method; assay type: cell-based
# Protocol: (§1) Typically, to be effective, the minimum inhibitory concentration of the roxithromycin against a specific bacteria should be less than 10 μg/mL, preferably less than 5 μg/mL, more preferably less than 2 μg/mL, even more preferably less than 1 μg/mL, and most preferably less than 0.5 μg/mL. The activity of roxithromycin against a bacteria can be determined using standard dilution tests. For example, the minimum inhibitory concentrations can be determined using the disk diffusion susceptibility testing method described in Clinical Microbiology Procedures Handbook, volume 1, edited by Henry D. Isenberg, American Society for Microbiology, 1992, section 5.1 or the well known method of Bauer et al. “Antibiotic Susceptibility Testing by a Standardized Single Disc Method,” Amer. J. Clin. Pathol., 45, p. 493-496.
# (§2) FIG. 1 provides a graphical representation of the average plasma serum concentration of roxithromycin as a function of time for the 5 cats that were administered a single dose of roxithromycin by subcutaneous injection at a dose of 10 mg/kg as a formulation containing 200 mg/mL of roxithromycin in 10% propylene glycol in glycerol formal. […] J. Clin. Pathol., 45, p. 493-496.
# [3] = tested on: Bacillus subtilis; assay: MIC, single disc method; assay type: cell-based
# Protocol: as §1, §2
# [4] = tested on: Escherichia coli; assay: MIC, single disc method; assay type: cell-based
# Protocol: as §1, §2
# [5] = tested on: Clostridium perfringes; assay: MIC, single disc method; assay type: cell-based
# Protocol: as §1, §2
# [6] = tested on: Streptococcus pyogenes; assay: MIC, single disc method; assay type: cell-based
# Protocol: as §1, §2
# [7] = tested on: Streptococcus pneumoniae; assay: MIC, single disc method; assay type: cell-based
# Protocol: as §1, §2
# [8] = tested on: Staphylococcus aureus; assay: MIC, single disc method; assay type: cell-based
# Protocol: as §1, §2
# [9] = tested on: Enterococcus faecalis; assay: MIC, single disc method; assay type: cell-based
# Protocol: as §1, §2
# [10] = Serum concentration after single subcutaneous injection to cats; assay type: in vivo; conditions: cat, single subcutaneous injection 10 mg/kg, 200 mg/mL in 10% propylene glycol in glycerol formal
# Protocol: Five cats (mixed breed of various sizes, males and female, approximately 4 kg) were administered 10 mg/kg of a roxithromycin composition by subcutaneous injection between the shoulder blades. The roxithromycin composition was prepared by weighing 5.128 g of roxithromycin (purity 97.5%) into a 25 mL volumetric flask, adding 2.5 mL of propylene glycol, and filling to volume with stabilized glycerol formal.
# Cats were kept in a stainless steel, suspended, wire bottom cage, at least 3′×3′, provided with a litter box in an environmentally controlled room (22±3° C., a relative humidity of 30-80%, a 12 hour light/dark schedule, and room ventilation of approximately 10-12 air changes per hour.) Tap water was available ad libitum and the cats were fed PMI Feline Lab Diet #5003 or other commercial product.
# Blood samples were collected on Day-1 and approximately 1 mL of whole blood was collected at 1, 8, 24, 36, 48, 60, and 72 hr following dosing and twice-daily thereafter through study termination on day 10. […] The dose site was monitored daily during the study.
# The serum was analyzed by high pressure liquid chromatograph (“HPLC”) using the following procedure: […]
# The serum concentration of roxithromycin was then determined by comparing the area under the curve for the HPLC peak corresponding to roxithromycin to a standard curve of peak areas v. known concentrations of roxithromycin in serum. […]
# [11] = in humans; cited from earlier work
# [12] = cat, single oral dose 20 mg/kg, capsule of powdered roxithromycin
# [13] = Elimination T1/2 of roxithromycin in a cat; assay type: in vivo; conditions: administered to a cat; route and dose not stated
# Protocol: The phrase “elimination half life” or “T1/2,” as used herein, has the conventional meaning used in pharmacokinetics, i.e., the time taken for the maximum plasma concentration (Cmax) of a drug to reduce by 50%.
# Therefore, the rate of clearance of roxithromycin from a cat, i.e., as measured by the T1/2, is much slower than when roxithromycin is administered to, for example, a human. The unexpectedly slow rate of clearance (long T1/2) allows bacterial infections in cats to be advantageously treated with a single administration of roxithromycin administered either orally or by injection. Treating a bacterial infection using a single dose of roxithromycin is simpler, more cost effective, and results in better patient compliance. Furthermore, single dose administration of roxithromycin is believed to reduce the risk of microbial strains emerging that are resistant to roxithromycin. Single dose administration of roxithromycin by injection is advantageous because administration by injection bypasses liver metabolism and the single administration precludes multiple visits to the veterinarian. Single dose administration orally, however, is less painful and can permit administration without requiring a visit to the veterinarian.
substance,measurement,setting,value
roxithromycin,stability in acidic environments,[1],acid labile
same,Minimum Inhibitory Concentration (MIC),[2],1 µg/mL
same,Minimum Inhibitory Concentration (MIC),[3],0.25 µg/mL
same,Minimum Inhibitory Concentration (MIC),[4],32 µg/mL
same,Minimum Inhibitory Concentration (MIC),[5],2 µg/mL
same,Minimum Inhibitory Concentration (MIC),[6],0.25 µg/mL
same,Minimum Inhibitory Concentration (MIC),[7],0.25 µg/mL
same,Minimum Inhibitory Concentration (MIC),[8],0.25 µg/mL
same,Minimum Inhibitory Concentration (MIC),[9],8 µg/mL
same,time for which serum concentration exceeds the MIC for several bacterial organisms,[10],more than 190 hours
same,half-life,[11],10 to 12 h
same,time for which serum concentration exceeds the MIC for several bacterial organisms,[12],at least 150 hours
same,elimination T1/2,[13],about 73.5 hours
